Structures can show the parent of a compound that is named as a salt.
Legend:
[1] = target: Human KDR (residues 790-1356) (Homo sapiens (Human), UniProt P35968); assay: Human KDR kinase assay, HTRF KinEase (Example B-2); format: biochemical; details: protocol of Example B-2
Outline: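 Ten compound concentrations (3% DMSO final) were pre-plated, then KDR (790-1356) with biotinylated peptide in Mg/Mn/DTT buffer was added; ATP at Km (4.0 μM) started a 40 min room-temperature reaction. Detection used Eu-TK antibody and SA-XL665 in EDTA buffer; activity normalized to DMSO and reference inhibitor, IC50 by logistic fit.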

[2] = target: Human MER (residues 528-999) (Homo sapiens (Human), UniProt Q12866); assay: Human Mer kinase assay, HTRF KinEase (Example C-2); format: biochemical; details: protocol of Example C-2
Outline: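 HTRF KinEase TK assay with MER 528-999 (1 ng/well) in enzymatic buffer plus 5 mM MgCl2 and 1 mM DTT, biotinylated peptide substrate and ATP at Km (40 μM), 3% DMSO final, 60 min at room temperature. Stopped with EDTA detection mix (SA-XL665, TK antibody-Eu3+), read at 665/620 nm after 60 min; IC50 from 10-point 4-parameter fit, normalized to DMSO and 1 μM reference.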

[3] = target: Human MET (residues 956-1390) (Homo sapiens (Human), UniProt P08581); assay: Human Met kinase assay, HTRF KinEase (Example D-2); format: biochemical; details: protocol of Example D-2; read-out: c-Met IC50
Outline: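 HTRF KinEase assay on MET residues 956-1390 (0.1 ng/well) in buffer with 5 mM MgCl2, 1 mM DTT and 1 mM MnCl2, with biotinylated peptide substrate, ATP at Km, 10 compound concentrations and 3% DMSO final, run 40 min at room temperature. The […] signal was normalized to DMSO and to 1 μM reference compound, and IC50 came from a 4-parameter logistic fit.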

[4] = target: KDR (phospho-KDR, VEGF165-stimulated HUVEC cells) (Homo sapiens (Human), UniProt P35968); assay: KDR autophosphorylation ELISA in HUVEC cells (Example G); format: cell-based; details: cellular activity; KDR autophosphorylation ELISA in HUVEC cells
Outline: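 Inhibition of VEGF165-driven KDR autophosphorylation is measured in primary human umbilical vein endothelial cells after 24 h serum deprivation. Compound preincubation lasts 1 h before a 5-minute challenge with 100 ng/mL ligand, and phosphorylated receptor is then measured by ELISA in the lysates.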

Human MER (residues 528-999), sequence (Q12866 528-999): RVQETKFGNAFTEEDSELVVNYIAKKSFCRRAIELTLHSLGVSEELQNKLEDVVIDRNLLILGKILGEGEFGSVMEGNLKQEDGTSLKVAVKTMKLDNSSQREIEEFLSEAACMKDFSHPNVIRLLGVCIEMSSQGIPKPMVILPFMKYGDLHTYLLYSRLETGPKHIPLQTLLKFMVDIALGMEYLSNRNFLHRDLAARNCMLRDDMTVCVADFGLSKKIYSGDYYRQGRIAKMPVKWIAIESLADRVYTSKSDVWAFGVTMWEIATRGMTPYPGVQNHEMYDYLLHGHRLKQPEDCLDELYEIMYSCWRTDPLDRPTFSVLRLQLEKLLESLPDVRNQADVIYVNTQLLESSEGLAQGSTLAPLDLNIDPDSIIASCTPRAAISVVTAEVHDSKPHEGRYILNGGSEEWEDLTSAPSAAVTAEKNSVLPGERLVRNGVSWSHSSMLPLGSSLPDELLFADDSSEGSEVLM
Human MET (residues 956-1390), sequence (P08581 956-1390): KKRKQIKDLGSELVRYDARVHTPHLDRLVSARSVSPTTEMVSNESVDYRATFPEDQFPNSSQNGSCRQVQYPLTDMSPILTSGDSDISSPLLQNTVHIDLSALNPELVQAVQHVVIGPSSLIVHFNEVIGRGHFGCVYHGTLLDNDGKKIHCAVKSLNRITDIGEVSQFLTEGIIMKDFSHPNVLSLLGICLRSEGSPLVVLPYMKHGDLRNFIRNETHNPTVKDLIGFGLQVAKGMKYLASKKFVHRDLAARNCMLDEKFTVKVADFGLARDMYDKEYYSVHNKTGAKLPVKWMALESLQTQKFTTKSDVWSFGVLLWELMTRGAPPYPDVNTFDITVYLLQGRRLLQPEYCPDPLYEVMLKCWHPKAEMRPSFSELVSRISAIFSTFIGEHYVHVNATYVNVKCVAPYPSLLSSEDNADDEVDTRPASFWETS
Human KDR (residues 790-1356), sequence (P35968 790-1356): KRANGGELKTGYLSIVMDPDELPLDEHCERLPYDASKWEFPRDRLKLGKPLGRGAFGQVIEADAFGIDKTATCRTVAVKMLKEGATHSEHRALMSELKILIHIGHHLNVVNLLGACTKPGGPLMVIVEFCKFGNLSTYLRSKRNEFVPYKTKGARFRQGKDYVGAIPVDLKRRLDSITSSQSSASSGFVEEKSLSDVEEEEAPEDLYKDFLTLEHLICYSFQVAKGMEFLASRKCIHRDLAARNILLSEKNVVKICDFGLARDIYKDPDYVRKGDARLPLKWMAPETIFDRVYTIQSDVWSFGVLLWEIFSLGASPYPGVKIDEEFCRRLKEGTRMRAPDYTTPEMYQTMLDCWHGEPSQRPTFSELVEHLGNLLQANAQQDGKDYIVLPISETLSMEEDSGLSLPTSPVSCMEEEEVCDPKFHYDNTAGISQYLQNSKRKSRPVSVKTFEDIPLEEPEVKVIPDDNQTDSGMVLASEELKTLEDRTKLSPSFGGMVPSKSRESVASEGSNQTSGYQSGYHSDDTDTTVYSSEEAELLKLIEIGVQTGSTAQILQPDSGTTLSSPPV
KDR (phospho-KDR, VEGF165-stimulated HUVEC cells), sequence (P35968 20-1356): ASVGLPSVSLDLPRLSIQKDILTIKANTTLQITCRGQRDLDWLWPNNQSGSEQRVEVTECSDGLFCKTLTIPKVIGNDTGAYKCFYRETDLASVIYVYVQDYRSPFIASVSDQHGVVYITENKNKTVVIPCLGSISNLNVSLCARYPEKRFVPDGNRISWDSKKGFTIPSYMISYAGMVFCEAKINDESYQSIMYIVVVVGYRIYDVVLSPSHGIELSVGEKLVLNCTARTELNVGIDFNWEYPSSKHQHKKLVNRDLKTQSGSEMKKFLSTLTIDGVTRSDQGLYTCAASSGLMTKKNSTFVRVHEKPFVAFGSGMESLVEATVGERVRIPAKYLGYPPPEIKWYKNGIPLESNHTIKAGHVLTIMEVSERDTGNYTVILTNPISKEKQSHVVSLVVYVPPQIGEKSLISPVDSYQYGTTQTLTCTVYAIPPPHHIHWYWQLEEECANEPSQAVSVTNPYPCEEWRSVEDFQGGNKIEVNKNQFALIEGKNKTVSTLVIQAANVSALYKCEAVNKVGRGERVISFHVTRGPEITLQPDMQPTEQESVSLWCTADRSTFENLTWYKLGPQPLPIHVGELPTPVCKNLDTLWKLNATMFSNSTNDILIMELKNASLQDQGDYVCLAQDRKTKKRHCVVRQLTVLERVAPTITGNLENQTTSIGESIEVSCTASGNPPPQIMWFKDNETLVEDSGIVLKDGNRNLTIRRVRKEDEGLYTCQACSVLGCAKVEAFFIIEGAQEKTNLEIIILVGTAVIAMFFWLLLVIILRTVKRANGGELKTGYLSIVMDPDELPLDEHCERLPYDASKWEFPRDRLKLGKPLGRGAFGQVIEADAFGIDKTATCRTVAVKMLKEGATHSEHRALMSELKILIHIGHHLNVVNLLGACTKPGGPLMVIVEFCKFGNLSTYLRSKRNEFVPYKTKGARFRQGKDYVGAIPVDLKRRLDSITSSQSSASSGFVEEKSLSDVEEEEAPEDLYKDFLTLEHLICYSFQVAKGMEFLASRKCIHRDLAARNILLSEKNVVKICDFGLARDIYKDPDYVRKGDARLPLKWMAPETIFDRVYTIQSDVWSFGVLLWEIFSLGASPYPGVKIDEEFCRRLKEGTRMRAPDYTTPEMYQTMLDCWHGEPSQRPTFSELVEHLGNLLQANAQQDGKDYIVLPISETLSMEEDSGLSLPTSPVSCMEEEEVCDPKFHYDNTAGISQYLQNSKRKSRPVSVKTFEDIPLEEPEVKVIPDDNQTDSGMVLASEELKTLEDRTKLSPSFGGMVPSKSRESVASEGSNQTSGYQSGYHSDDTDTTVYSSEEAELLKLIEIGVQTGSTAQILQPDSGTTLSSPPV

IC50 [1] [nM] | IC50 [2] [nM] | IC50 [3] [nM] | IC50 [4] [nM] | SMILES
> 300 | < 100 | < 100 | < 100 | Cc1ncc(C(=O)Nc2ccc(Oc3ccnc4cc(C(C)C)cnc34)c(F)c2)c(O)c1-c1ccc(F)cc1 [Compound 596, 5-(4-Fluorophenyl)-N-[3-fluoro-4-[(7-propan-2-yl-1,5-naphthyridin-4-yl)oxy]phenyl]-4-hydroxy-6-methylpyridine-3-carboxamide]
< 100 | < 100 | < 100 | < 100 | Cc1ncc(C(=O)Nc2ccc(Oc3ccnc4cc(-c5cnn(C(F)F)c5)cnc34)cc2)c(O)c1-c1ccc(F)cc1 [Compound 611, N-[4-[[7-[1-(Difluoromethyl)pyrazol-4-yl]-1,5-naphthyridin-4-yl]oxy]phenyl]-5-(4-fluorophenyl)-4-hydroxy-6-methylpyridine-3-carboxamide]
> 300 | < 100 | < 100 | > 300 | Cc1nc2c(Oc3ccc(NC(=O)c4cn(C(C)C)c(C)c(-c5ccc(F)cc5)c4=O)cc3)ccnc2cc1-c1cccnc1 [Compound 613, 5-(4-Fluorophenyl)-6-methyl-N-[4-[(6-methyl-7-pyridin-3-yl-1,5-naphthyridin-4-yl)oxy]phenyl]-4-oxo-1-propan-2-ylpyridine-3-carboxamide hydrochloride]
> 300 | < 100 | < 100 | > 300 | Cc1nc2c(Oc3ccc(NC(=O)c4cn(C(C)C)c(C)c(-c5ccc(F)cc5)c4=O)cc3F)ccnc2cc1-c1cnn(C(F)F)c1 [Compound 614, N-[4-[[7-[1-(Difluoromethyl)pyrazol-4-yl]-6-methyl-1,5-naphthyridin-4-yl]oxy]-3-fluorophenyl]-5-(4-fluorophenyl)-6-methyl-4-oxo-1-propan-2-ylpyridine-3-carboxamide hydrochloride]
< 100 | < 100 | < 100 | < 100 | Cc1nc2c(Oc3ccc(NC(=O)c4cnc(C)c(-c5ccc(F)cc5)c4O)cc3F)ccnc2cc1-c1cnn(C(F)F)c1 [Compound 615, N-[4-[[7-[1-(Difluoromethyl)pyrazol-4-yl]-6-methyl-1,5-naphthyridin-4-yl]oxy]-3-fluorophenyl]-5-(4-fluorophenyl)-4-hydroxy-6-methylpyridine-3-carboxamide hydrochloride]
> 300 | < 100 | < 100 | < 100 | Cc1nc2c(Oc3ccc(NC(=O)c4cnc(C)c(-c5ccc(F)cc5)c4O)cc3)ccnc2cc1-c1cccnc1 [Compound 616, 5-(4-Fluorophenyl)-4-hydroxy-6-methyl-N-[4-[(6-methyl-7-pyridin-3-yl-1,5-naphthyridin-4-yl)oxy]phenyl]pyridine-3-carboxamide hydrochloride]
100 to 300 | < 100 | < 100 | < 100 | Cc1nc2c(Oc3ccc(NC(=O)c4cnc(C)c(-c5ccc(F)cc5)c4O)cc3)ccnc2cc1-c1cnn(C(F)F)c1 [Compound 617, N-[4-[[7-[1-(Difluoromethyl)pyrazol-4-yl]-6-methyl-1,5-naphthyridin-4-yl]oxy]phenyl]-5-(4-fluorophenyl)-4-hydroxy-6-methylpyridine-3-carboxamide hydrochloride]
> 300 | < 100 | 100 to 300 | < 100 | Cc1ncc(C(=O)Nc2ccc(Oc3ccnc4cnc(Cl)cc34)c(F)c2)c(O)c1-c1ccc(F)cc1 [Compound 641, N-[4-[(6-chloro-1,7-naphthyridin-4-yl)oxy]-3-fluorophenyl]-5-(4-fluorophenyl)-4-hydroxy-6-methylpyridine-3-carboxamide]
< 100 | < 100 | < 100 | < 100 | Cc1ncc(C(=O)Nc2ccc(Oc3ccnc4cnccc34)c(F)c2)c(O)c1-c1ccc(F)cc1 [Compound 642, N-[3-fluoro-4-(1,7-naphthyridin-4-yloxy)phenyl]-5-(4-fluorophenyl)-4-hydroxy-6-methylpyridine-3-carboxamide]

Continued, molecule first:

SMILES | IC50 [1] [nM] | IC50 [2] [nM] | IC50 [3] [nM] | IC50 [4] [nM]
Cc1nc(C)c(-c2ccc(F)cc2)c(O)c1C(=O)Nc1ccc(Oc2ccnc3cc(C(C)C)cnc23)cc1 [Compound 598, 5-(4-Fluorophenyl)-4-hydroxy-2,6-dimethyl-N-[4-[(7-propan-2-yl-1,5-naphthyridin-4-yl)oxy]phenyl]pyridine-3-carboxamide] | 100 to 300 | < 100 | < 100 | < 100
Cc1ncc(C(=O)Nc2ccc(Oc3ccnc4cc(-c5cnn(C(F)F)c5)cnc34)c(F)c2)c(O)c1-c1ccc(F)cc1 [Compound 610, N-[4-[[7-[1-(Difluoromethyl)pyrazol-4-yl]-1,5-naphthyridin-4-yl]oxy]-3-fluorophenyl]-5-(4-fluorophenyl)-4-hydroxy-6-methylpyridine-3-carboxamide hydrochloride] | 100 to 300 | < 100 | < 100 | < 100
Cc1nc2c(Oc3ccc(NC(=O)c4cn(C(C)C)c(C)c(-c5ccc(F)cc5)c4=O)cc3)ccnc2cc1-c1cnn(C(F)F)c1 [Compound 612, N-[4-[[7-[1-(Difluoromethyl)pyrazol-4-yl]-6-methyl-1,5-naphthyridin-4-yl]oxy]phenyl]-5-(4-fluorophenyl)-6-methyl-4-oxo-1-propan-2-ylpyridine-3-carboxamide hydrochloride] | > 300 | < 100 | < 100 | > 300
Cc1nc2c(Oc3ccc(NC(=O)c4cnc(C)c(-c5ccc(F)cc5)c4O)cc3F)ccnc2cc1-c1cccnc1 [Compound 618, N-[3-Fluoro-4-[(6-methyl-7-pyridin-3-yl-1,5-naphthyridin-4-yl)oxy]phenyl]-5-(4-fluorophenyl)-4-hydroxy-6-methylpyridine-3-carboxamide hydrochloride] | 100 to 300 | < 100 | < 100 | < 100
COc1cc2nccc(Oc3ccc(NC(=O)c4cn(CCO)c(C)c(-c5ccc(F)cc5)c4=O)cc3F)c2nc1OC [Compound 619, N-[4-[(6,7-Dimethoxy-1,5-naphthyridin-4-yl)oxy]-3-fluorophenyl]-5-(4-fluorophenyl)-1-(2-hydroxyethyl)-6-methyl-4-oxopyridine-3-carboxamide] | > 300 | < 100 | < 100 | < 100
Cc1nc2c(Oc3ccc(NC(=O)c4cn(C(C)C)c(C)c(-c5ccc(F)cc5)c4=O)cc3F)ccnc2cc1-c1cccnc1 [Compound 620, N-[3-Fluoro-4-[(6-methyl-7-pyridin-3-yl-1,5-naphthyridin-4-yl)oxy]phenyl]-5-(4-fluorophenyl)-6-methyl-4-oxo-1-propan-2-ylpyridine-3-carboxamide] | > 300 | < 100 | < 100 | > 300
COc1cc2ncnc(Oc3ccc(NC(=O)c4cn(C(C)C)cc(-c5ccc(F)cc5)c4=O)cc3F)c2nc1OC [Compound 636, N-[4-(6,7-dimethoxypyrido[3,2-d]pyrimidin-4-yl)oxy-3-fluorophenyl]-5-(4-fluorophenyl)-4-oxo-1-propan-2-ylpyridine-3-carboxamide] | < 100 | < 100 | < 100 | > 300
COc1cc2ncnc(Oc3ccc(NC(=O)c4cn(-c5cnn(C)c5)cc(-c5ccc(F)cc5)c4=O)cc3F)c2nc1OC [Compound 637, N-[4-(6,7-dimethoxyprido[3,2-d]pyrimidin-4-yl)oxy-3-fluorophenyl]-5-(4-fluorophenyl)-1-(1-methylpyrazol-4-yl)-4-oxopyridine-3-carboxamide] | > 300 | < 100 | < 100 | > 300
COc1cc2c(Oc3ccc(NC(=O)c4cnc(C)c(-c5ccc(F)cc5)c4O)cc3F)ccnc2cn1 [Compound 639, N-[3-fluoro-4-[(6-methoxy-1,7-naphthyridin-4-yl)oxy]phenyl]-5-(4-fluorophenyl)-4-hydroxy-6-methylpyridine-3-carboxamide] | > 300 | < 100 | < 100 | < 100
COc1cc2c(Oc3ccc(NC(=O)c4cn(C5CC5)c(C)c(-c5ccc(F)cc5)c4=O)cc3F)ccnc2cn1 [Compound 640, 1-cyclopropyl-N-[3-fluoro-4-[(6-methoxy-1,7-naphthyridin-4-yl)oxy]phenyl]-5-(4-fluorophenyl)-6-methyl-4-oxopyridine-3-carboxamide] | > 300 | < 100 | < 100 | > 300
